Among the test systems are HL-60(TB) leukemia; EKVX NSCLC; IGROV1 ovarian; TK-10 renal; NCI-H522 lung; A549 NSCLC; ACHN renal; CAKI-1 renal; SF-295 CNS; U251 CNS.
Assay in all cases: NCI-60 cell line screen, 48 h

TGI and GI50 data for eight molecules are collected here from PubChem BioAssay (NCI).

Structures are written as SMILES. Several values for one entry are separate records, joined by “and”; a condition that tells them apart may be missing. Equal values may be shown once.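 Exposure lasted 48 hours, with cells grown in 96-well plates and compounds tested at five concentrations. The concentration for 50% growth inhibition is given as GI50. Definition used: TGI = concentration required for complete inhibition of growth.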

On to `CC1=COC2=C(C)C(=O)C(=O)c3c(C)ccc1c32`, for which the TGI in the assay with HL-60(TB) leukemia was 5.38 µM; in the assay with EKVX NSCLC it was 24.7 µM; with IGROV1 ovarian, 21.6 µM; in the assay with TK-10 renal, > 92.6 µM; with NCI-H522 lung it was 8.27 µM; in the assay with A549 NSCLC, 15.2 µM. Also, the TGI in the assay with ACHN renal is 29.5 µM; in the assay on CAKI-1 renal, > 63.4 µM; in the assay with SF-295 CNS, 18.8 µM; in the assay on U251 CNS, > 44.7 µM.

Take `O=[N+]([O-])c1ccc(N(CCO)CCO)c2c1no[n+]2[O-]`: the GI50 in the assay on HL-60(TB) leukemia is 0.759 µM; in the assay on EKVX NSCLC, 1.8 µM; with IGROV1 ovarian, 1.75 µM; with TK-10 renal, 2.2 µM; with NCI-H522 lung, 0.926 µM; in the assay on A549 NSCLC, 1.83 µM. The GI50 is 0.768 µM with ACHN renal, 0.471 µM in the assay with CAKI-1 renal, 0.803 µM with SF-295 CNS and 0.655 µM with U251 CNS. In addition, the TGI in the assay with HL-60(TB) leukemia was 3.57 µM; in the assay on EKVX NSCLC, 6.66 µM; in the assay on IGROV1 ovarian it was 7.42 µM; in the assay on TK-10 renal it was 8.22 µM; in the assay on NCI-H522 lung, 3.38 µM; in the assay with A549 NSCLC, 8.92 µM. Further, the TGI with ACHN renal stood at 5.12 µM; in the assay with CAKI-1 renal it was 2.36 µM; in the assay on SF-295 CNS, 3.38 µM; in the assay with U251 CNS it was 2.37 µM.

For `C#C[C@]1(O)CC[C@H]2[C@@H]3CC=C4c5nc(Nc6ccc(OC)cc6OC)sc5CC[C@]4(C)[C@H]3CC[C@@]21C`, the GI50 in the assay with HL-60(TB) leukemia was 1.42 µM; in the assay with EKVX NSCLC it was 2.66 µM; with IGROV1 ovarian, 1.99 µM; in the assay with TK-10 renal it was 3.9 µM; in the assay with NCI-H522 lung, 2.22 µM; in the assay with A549 NSCLC it was 2.68 µM. In addition, the GI50 with ACHN renal is 2.06 µM; in the assay with CAKI-1 renal, 1.39 µM; in the assay on SF-295 CNS, 0.249 µM; in the assay with U251 CNS, 0.77 µM. Further, the TGI with HL-60(TB) leukemia stood at 5.91 µM; in the assay on EKVX NSCLC it was 17.8 µM; in the assay with IGROV1 ovarian it was 7.11 µM; in the assay with TK-10 renal it was 15.6 µM; in the assay with NCI-H522 lung, 5.79 µM; with A549 NSCLC, 43.9 µM. Besides, the TGI is 10.2 µM in the assay on ACHN renal, 5.74 µM in the assay on CAKI-1 renal, 0.613 µM in the assay with SF-295 CNS and 4.09 µM with U251 CNS.

`COc1ccc(OC)c(-c2nc3sccn3c2/C=C2/C(=O)Nc3ccccc32)c1`: the GI50 in the assay with HL-60(TB) leukemia is 0.0524 µM; in the assay with EKVX NSCLC it was 2.51 µM; in the assay on IGROV1 ovarian, 2.1 µM; in the assay with TK-10 renal, 1.29 µM; with NCI-H522 lung it was 0.294 µM; with A549 NSCLC it was 0.849 µM. Further, the GI50 was 0.61 µM in the assay with ACHN renal, 0.506 µM in the assay on CAKI-1 renal, 0.248 µM in the assay on SF-295 CNS and 1.06 µM in the assay with U251 CNS. Also, the TGI is 26.5 µM with HL-60(TB) leukemia; 27.7 µM in the assay on EKVX NSCLC; > 86.1 µM in the assay with IGROV1 ovarian; 20.2 µM in the assay with TK-10 renal; 17.3 µM in the assay with NCI-H522 lung; > 60.2 µM with A549 NSCLC. In addition, the TGI with ACHN renal was determined as 15.9 µM; in the assay on CAKI-1 renal, 8.68 µM; in the assay with SF-295 CNS, 0.635 µM; with U251 CNS, 15 µM.

Take `C/C=C(/C)C(=O)OC1C=C(CO)C(=O)C(OC(=O)/C(C)=C\C)C1C(C)C` (stereo not given): the GI50 with HL-60(TB) leukemia is 0.403 µM; in the assay with EKVX NSCLC it was 1.75 µM; in the assay on IGROV1 ovarian, 0.96 µM; with TK-10 renal, 1.38 µM; in the assay with NCI-H522 lung it was 0.63 µM; in the assay on A549 NSCLC, 1.45 µM. Besides, the GI50 in the assay on ACHN renal is 0.541 µM; with CAKI-1 renal, 1.34 µM; with SF-295 CNS it was 1.82 µM; with U251 CNS it was 0.708 µM. For the same molecule, the TGI in the assay on HL-60(TB) leukemia amounted to 3.86 µM; in the assay with EKVX NSCLC, 3.22 µM; with IGROV1 ovarian, 2.43 µM; in the assay with TK-10 renal it was 2.79 µM; in the assay on NCI-H522 lung, 2.23 µM; with A549 NSCLC, 2.94 µM. The TGI in the assay with ACHN renal was 1.69 µM; with CAKI-1 renal, 2.62 µM; with SF-295 CNS, 3.35 µM; with U251 CNS, 2.03 µM.

On to `COC(=O)C1CCc2c(OC)ccc(OC)c2C1=O` (stereo not given), for which the TGI with HL-60(TB) leukemia, with EKVX NSCLC, in the assay on IGROV1 ovarian, in the assay on TK-10 renal, in the assay on NCI-H522 lung and in the assay on A549 NSCLC was > 100 µM in each case. The TGI in the assay on ACHN renal, in the assay on CAKI-1 renal, with SF-295 CNS and in the assay with U251 CNS was > 100 µM each time.

On to `CCOC(=O)C(=Cc1ccc(Br)cc1)C(=O)OCC`, for which the GI50 is 1.63 µM in the assay with HL-60(TB) leukemia; 1.88 µM in the assay with EKVX NSCLC; 1.81 µM in the assay with IGROV1 ovarian; 3.13 µM in the assay on TK-10 renal; 1.75 µM with NCI-H522 lung; 2.28 µM with A549 NSCLC. In addition, the GI50 is 2.09 µM in the assay with ACHN renal, 1.76 µM with CAKI-1 renal, 2.74 µM in the assay on SF-295 CNS and 1.43 µM with U251 CNS. Also, the TGI in the assay with HL-60(TB) leukemia amounted to 7.53 µM; in the assay with EKVX NSCLC it was 4.64 µM; in the assay on IGROV1 ovarian, 3.94 µM; in the assay with TK-10 renal it was 8.57 µM; in the assay with NCI-H522 lung it was 4.22 µM; in the assay with A549 NSCLC, 5.83 µM. For the same molecule, the TGI came out at 4.45 µM with ACHN renal, 5.59 µM in the assay with CAKI-1 renal, 9.36 µM with SF-295 CNS and 2.98 µM in the assay on U251 CNS.

Turning to `NC(N)=NC(N)=NCCc1ccccc1`, the GI50 with HL-60(TB) leukemia was 77.4 µM and > 100 µM; in the assay with EKVX NSCLC, 6.79 µM and 7.74 µM; with IGROV1 ovarian, > 100 µM; with TK-10 renal, 58.6 µM and > 100 µM; with NCI-H522 lung, 44.7 µM and > 100 µM; in the assay with A549 NSCLC, > 100 µM and 97.1 µM. In addition, the GI50 with ACHN renal is > 100 µM; in the assay with CAKI-1 renal, 58.5 µM and > 100 µM; in the assay on SF-295 CNS, 53.2 µM and > 100 µM; with U251 CNS, > 100 µM. For the same molecule, the TGI in the assay on HL-60(TB) leukemia, in the assay on EKVX NSCLC, in the assay on IGROV1 ovarian, in the assay with TK-10 renal, with NCI-H522 lung and in the assay on A549 NSCLC was > 100 µM each time. The TGI in the assay with ACHN renal, in the assay with CAKI-1 renal, in the assay on SF-295 CNS and in the assay on U251 CNS was > 100 µM in each case.
